Values joined by “and” are separate entries in the source; they are usually repeats but may differ in a detail not shown here. Equal entries are not always repeated.
Test system: tumors derived from LNCaP cells
Test: PET/CT imaging and biodistribution of F-18 labeled HTK-01069 and HTK-01070 in tumor-bearing mice
Format: in vivo, mouse (NODSCID 1L2RγKO male mice)
Method: LNCap cell line used in the tumor model was obtained commercially from ATTC (LNCaP clone FGC, CRL-1740). It was established from a metastatic site of left supraclavicular lymph node of human prostatic adenocarcinoma. Cells were cultured in PRMI 1640 (StemCell Technologies, Vancouver, BC) supplemented by 10% FBS, 100 U/mL penicillin and 100 μg/mL streptomycin at 37° C. in a humidified incubator containing 5% CO2. Cells grown to 80-90% confluence were then washed with sterile phosphate-buffered saline (1×PBS pH 7.4) and trypsinization. The collected cells number was counted with Hemacytometer (Hausser Scientific).
Tumor implantation: Imaging and biodistribution experiments were performed using NODSCID 1L2RγKO male mice. Three or four mice in each cage equipped with enrichments. The mice were maintained and the experiments were conducted in according to the guidelines established by Canadian Council on Animal Care and approved by Animal Ethics Committee of the University of British Columbia. Mice were housed under pathogen-free conditions and kept on twelve hours light and twelve hours dark cycle in the Animal Research Centre, British Columbia Cancer Research Centre, Vancouver, Canada.
Mice were anesthetized by inhalation with 2.5% isoflurane in 2.0 L/min of oxygen during cells implantation. Mice were implanted subcutaneously with 1×10^7 LNCaP cells behind left shoulder. Mice were imaged or used in biodistribution studies when the tumor grew up to reach 5-8 mm in diameter during 5-6 weeks.
PET/CT Imaging: PET imaging experiments were conducted using Siemens inveon micro PET/CT scanner. Each tumor bearing mouse was injected ˜6.44 MBq of F-18 labeled HTK-01069 and ˜7.08 MBq of F-18 labeled HTK-01070 through the tail vein under anesthesia. After one hour, the mice were sedated again with 2% isoflurane inhalation and positioned in the scanner. Static PET imaging was performed to determined activity uptake of tumor and other organs. A CT scan was obtained for localization and attenuation correction after segmentation for reconstructing the PET images. The data was acquired by scanning the mice for 10 minutes each. The mice were kept warm by a heating pad during acquisition. The mice were euthanized after imaging and followed by biodistribution. Please see FIGS. 2 and 3 of this specification for reconstructed PET images for 1L2RγKO mice injected with HTK-01069 and HTK-01070 respectively.
Blood was withdrawn immediately, and the organs of interest were quickly removed. Each organ was weighed and the tissue radioactivity was measured with a Cobra II gamma counter (Packard), normalized to the injected dose using a standard curve and expressed as the percentage of the injected dose per gram of tissue (% ID/g). Biodistribution data are shown for HTK-01069 in Tables 5, 6 and 7 and HTK-01070 in Tables 8, 9, 10 of the specification respectively.

[1] = 1 h p.i. with co-injection of 0.5 mg DCFPyL, Avg
[2] = 1 h p.i. with co-injection of 0.5 mg DCFPyL, single mice

Biodistribution Adrenals [1]: 0.35 % ID/g | Biodistribution Blood [1]: 0.45 % ID/g | Biodistribution Bone [1]: 0.13 % ID/g | Biodistribution Brain [1]: 0.03 % ID/g | Biodistribution Fat [1]: 0.11 % ID/g | Biodistribution Heart [1]: 0.25 % ID/g | Biodistribution Intestine [1]: 0.57 % ID/g | Biodistribution Kidney [1]: 3.54 % ID/g | Biodistribution Liver [1]: 0.11 % ID/g | Biodistribution Lung [1]: 0.15 % ID/g | Biodistribution Muscle [1]: 0.30 % ID/g | Biodistribution Pancreas [1]: 3.00 % ID/g | Biodistribution Seminal [1]: 0.38 % ID/g | Biodistribution Spleen [1]: 0.11 % ID/g | Biodistribution Stomach [1]: 0.13 % ID/g | Biodistribution Tail [1]: 0.44 % ID/g | Biodistribution Testes [1]: 0.10 % ID/g | Biodistribution Tumour [1]: 0.33 % ID/g | Biodistribution Adrenals (1 h p.i., Avg): 3.98 % ID/g | Biodistribution Blood (1 h p.i., Avg): 0.52 % ID/g | Biodistribution Bone (1 h p.i., Avg): 0.27 % ID/g | Biodistribution Brain (1 h p.i., Avg): 0.03 % ID/g | Biodistribution Fat (1 h p.i., Avg): 1.09 % ID/g | Biodistribution Heart (1 h p.i., Avg): 1.16 % ID/g | Biodistribution Intestine (1 h p.i., Avg): 0.55 % ID/g | Biodistribution Kidney (1 h p.i., Avg): 92.90 % ID/g | Biodistribution Liver (1 h p.i., Avg): 0.14 % ID/g | Biodistribution Lung (1 h p.i., Avg): 0.26 % ID/g | Biodistribution Muscle (1 h p.i., Avg): 0.36 % ID/g | Biodistribution Pancreas (1 h p.i., Avg): 2.77 % ID/g | Biodistribution Seminal (1 h p.i., Avg): 2.82 % ID/g | Biodistribution Spleen (1 h p.i., Avg): 0.48 % ID/g | Biodistribution Stomach (1 h p.i., Avg): 2.99 % ID/g | Biodistribution Tail (1 h p.i., Avg): 0.62 % ID/g | Biodistribution Testes (1 h p.i., Avg): 0.53 % ID/g | Biodistribution Tumour (1 h p.i., Avg): 5.58 % ID/g | Biodistribution Brain (1 h p.i., single mice): 0.03 % ID/g | Biodistribution Adrenals (2 h p.i., Avg): 2.01 % ID/g | Biodistribution Blood (2 h p.i., Avg): 0.16 % ID/g | Biodistribution Bone (2 h p.i., Avg): 0.12 % ID/g | Biodistribution Brain (2 h p.i., Avg): 0.03 % ID/g | Biodistribution Fat (2 h p.i., Avg): 0.43 % ID/g | Biodistribution Heart (2 h p.i., Avg): 0.72 % ID/g | Biodistribution Intestine (2 h p.i., Avg): 0.75 % ID/g | Biodistribution Kidney (2 h p.i., Avg): 51.79 % ID/g | Biodistribution Liver (2 h p.i., Avg): 0.06 % ID/g | Biodistribution Lung (2 h p.i., Avg): 0.12 % ID/g | Biodistribution Muscle (2 h p.i., Avg): 0.24 % ID/g | Biodistribution Pancreas (2 h p.i., Avg): 2.24 % ID/g | Biodistribution Seminal (2 h p.i., Avg): 3.24 % ID/g | Biodistribution Spleen (2 h p.i., Avg): 0.26 % ID/g | Biodistribution Stomach (2 h p.i., Avg): 2.25 % ID/g | Biodistribution Tail (2 h p.i., Avg): 0.31 % ID/g | Biodistribution Testes (2 h p.i., Avg): 0.39 % ID/g | Biodistribution Tumour (2 h p.i., Avg): 5.36 % ID/g
Structure (SMILES): C[N+](C)(Cc1ccc(C(=O)NCCCC[C@H](NC(=O)N[C@@H](CCC(=O)O)C(=O)O)C(=O)O)cc1)C[B-](F)(F)[18F] [F-18 HTK-01069]
Biodistribution Bone [2]: 0.15 % ID/g and 0.17 % ID/g and 0.11 % ID/g and 0.10 % ID/g | Biodistribution Brain [2]: 0.02 % ID/g and 0.03 % ID/g and 0.04 % ID/g | Biodistribution Heart [2]: 0.17 % ID/g and 0.31 % ID/g and 0.27 % ID/g and 0.26 % ID/g | Biodistribution Kidney [2]: 2.35 % ID/g and 3.57 % ID/g and 4.08 % ID/g and 4.15 % ID/g | Biodistribution Lung [2]: 0.10 % ID/g and 0.20 % ID/g and 0.16 % ID/g and 0.13 % ID/g | Biodistribution Muscle [2]: 0.22 % ID/g and 0.36 % ID/g and 0.37 % ID/g and 0.26 % ID/g | Biodistribution Pancreas [2]: 2.40 % ID/g and 3.36 % ID/g and 2.71 % ID/g and 3.53 % ID/g | Biodistribution Stomach [2]: 0.08 % ID/g and 0.13 % ID/g and 0.15 % ID/g | Biodistribution Tail [2]: 0.43 % ID/g and 0.41 % ID/g and 0.37 % ID/g and 0.55 % ID/g | Biodistribution Testes [2]: 0.07 % ID/g and 0.13 % ID/g and 0.12 % ID/g and 0.09 % ID/g | Biodistribution Tumour [2]: 0.30 % ID/g and 0.35 % ID/g and 0.26 % ID/g and 0.42 % ID/g | Biodistribution Fat (1 h p.i., single mice): 0.95 % ID/g and 1.21 % ID/g and 0.74 % ID/g and 1.46 % ID/g | Biodistribution Intestine (1 h p.i., single mice): 0.43 % ID/g and 0.59 % ID/g and 0.54 % ID/g and 0.64 % ID/g | Biodistribution Lung (1 h p.i., single mice): 0.21 % ID/g and 0.28 % ID/g and 0.22 % ID/g and 0.32 % ID/g | Biodistribution Muscle (1 h p.i., single mice): 0.36 % ID/g and 0.39 % ID/g and 0.34 % ID/g and 0.35 % ID/g | Biodistribution Pancreas (1 h p.i., single mice): 2.32 % ID/g and 2.86 % ID/g and 2.76 % ID/g and 3.17 % ID/g | Biodistribution Tail (1 h p.i., single mice): 0.70 % ID/g and 0.47 % ID/g and 0.57 % ID/g and 0.74 % ID/g | Biodistribution Testes (1 h p.i., single mice): 0.44 % ID/g and 0.58 % ID/g and 0.51 % ID/g and 0.60 % ID/g | Biodistribution Tumour (1 h p.i., single mice): 7.84 % ID/g and 4.16 % ID/g and 4.47 % ID/g and 5.86 % ID/g | Biodistribution Bone (2 h p.i., single mice): 0.12 % ID/g and 0.08 % ID/g and 0.14 % ID/g and 0.13 % ID/g | Biodistribution Brain (2 h p.i., single mice): 0.04 % ID/g and 0.02 % ID/g and 0.03 % ID/g | Biodistribution Heart (2 h p.i., single mice): 0.63 % ID/g and 0.61 % ID/g and 0.79 % ID/g and 0.84 % ID/g | Biodistribution Intestine (2 h p.i., single mice): 0.78 % ID/g and 0.92 % ID/g and 0.63 % ID/g and 0.68 % ID/g | Biodistribution Kidney (2 h p.i., single mice): 62.04 % ID/g and 35.60 % ID/g and 49.89 % ID/g and 59.65 % ID/g | Biodistribution Lung (2 h p.i., single mice): 0.16 % ID/g and 0.09 % ID/g and 0.11 % ID/g and 0.14 % ID/g | Biodistribution Muscle (2 h p.i., single mice): 0.29 % ID/g and 0.18 % ID/g and 0.22 % ID/g and 0.28 % ID/g | Biodistribution Pancreas (2 h p.i., single mice): 2.39 % ID/g and 1.89 % ID/g and 2.21 % ID/g and 2.48 % ID/g | Biodistribution Spleen (2 h p.i., single mice): 0.31 % ID/g and 0.18 % ID/g and 0.21 % ID/g and 0.33 % ID/g | Biodistribution Tail (2 h p.i., single mice): 0.29 % ID/g and 0.24 % ID/g and 0.36 % ID/g and 0.34 % ID/g | Biodistribution Testes (2 h p.i., single mice): 0.41 % ID/g and 0.37 % ID/g and 0.39 % ID/g | Biodistribution Tumour (2 h p.i., single mice): 5.03 % ID/g and 4.25 % ID/g and 5.74 % ID/g and 6.41 % ID/g

Source: US10882871B2, “18/19F-labelled compounds which target the prostate specific membrane antigen” (BRITISH COLUMBIA CANCER AGENCY BRANCH, priority 2016, dated 2021)
